Data as given in US20250304576A1 (Cancer Research Technology Limited, priority 2022, published 2025).

Legend:
Recombinant IKKβ = biological target: T1, Recombinant IKKβ (Homo sapiens, UniProt O14920); assay: DELFIA IKKβ kinase assay (apparent Ki, Cheng-Prusoff); type: biochemical
T1 construct: purchased Millipore, Dundee, UK
T1 sequence (O14920 1-756): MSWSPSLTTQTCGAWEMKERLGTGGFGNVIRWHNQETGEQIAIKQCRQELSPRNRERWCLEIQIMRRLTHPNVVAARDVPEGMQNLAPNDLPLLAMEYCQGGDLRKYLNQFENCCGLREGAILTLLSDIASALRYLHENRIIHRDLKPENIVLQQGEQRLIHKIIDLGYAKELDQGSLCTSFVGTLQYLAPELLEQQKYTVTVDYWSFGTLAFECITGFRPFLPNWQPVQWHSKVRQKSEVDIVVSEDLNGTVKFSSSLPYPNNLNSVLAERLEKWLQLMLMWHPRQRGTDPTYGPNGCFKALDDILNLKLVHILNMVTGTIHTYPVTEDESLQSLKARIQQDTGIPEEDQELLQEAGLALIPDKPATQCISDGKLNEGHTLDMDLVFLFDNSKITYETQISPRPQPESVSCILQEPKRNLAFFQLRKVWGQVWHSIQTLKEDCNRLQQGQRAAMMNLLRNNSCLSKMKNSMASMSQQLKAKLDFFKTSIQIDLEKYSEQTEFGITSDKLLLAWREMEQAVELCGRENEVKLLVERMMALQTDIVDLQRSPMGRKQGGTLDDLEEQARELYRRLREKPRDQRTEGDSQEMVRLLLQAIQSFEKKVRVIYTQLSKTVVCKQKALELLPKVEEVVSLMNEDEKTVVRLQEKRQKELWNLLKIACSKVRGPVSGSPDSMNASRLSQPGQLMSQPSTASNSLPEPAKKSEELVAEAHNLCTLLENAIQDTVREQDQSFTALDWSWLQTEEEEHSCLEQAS
In short: (§1)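 Recombinant IKKα or IKKβ (37 nM) with 0.375 μM biotinylated IκB-α (Ser32) peptide and 40 μM ATP in 40 mM Tris-HCl pH 7.5, 20 mM MgCl2, 60 min at 30° C. Phospho-substrate captured on streptavidin and detected by anti-phospho-IκB-α plus europium anti-mouse IgG time-resolved fluorescence; apparent Ki via Cheng-Prusoff.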

Recombinant IKKα = biological target: T2, Recombinant IKKα (Homo sapiens, UniProt O15111); assay: DELFIA IKKα kinase assay (apparent Ki, Cheng-Prusoff); type: biochemical
T2 construct: purchased Millipore, Dundee, UK
T2 sequence (O15111 1-745): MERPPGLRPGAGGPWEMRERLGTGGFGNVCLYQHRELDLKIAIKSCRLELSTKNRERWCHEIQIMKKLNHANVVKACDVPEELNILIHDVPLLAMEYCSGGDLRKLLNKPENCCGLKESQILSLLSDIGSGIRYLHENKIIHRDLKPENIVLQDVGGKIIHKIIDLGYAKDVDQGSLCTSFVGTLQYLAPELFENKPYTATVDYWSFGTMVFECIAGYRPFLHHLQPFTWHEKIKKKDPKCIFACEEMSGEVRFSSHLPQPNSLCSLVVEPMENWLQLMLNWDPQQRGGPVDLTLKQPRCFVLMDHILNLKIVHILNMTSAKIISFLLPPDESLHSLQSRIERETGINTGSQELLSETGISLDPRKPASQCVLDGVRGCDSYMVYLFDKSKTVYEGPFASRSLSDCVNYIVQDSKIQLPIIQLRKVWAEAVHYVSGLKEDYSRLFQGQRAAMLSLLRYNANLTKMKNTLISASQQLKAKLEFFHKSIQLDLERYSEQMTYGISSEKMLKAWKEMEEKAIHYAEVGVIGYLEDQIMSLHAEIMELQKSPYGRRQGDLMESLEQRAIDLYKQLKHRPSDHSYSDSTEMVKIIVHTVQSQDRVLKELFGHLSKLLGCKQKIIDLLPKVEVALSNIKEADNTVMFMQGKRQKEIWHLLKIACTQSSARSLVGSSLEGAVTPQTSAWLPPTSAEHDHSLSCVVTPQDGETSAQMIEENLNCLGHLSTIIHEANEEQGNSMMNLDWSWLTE
In short: as §1

[1] = DELFIA assay (first line of an example)
[2] = non-italicised figure: DELFIA assay

| Ki (Recombinant IKKβ; [1]) | Ki (Recombinant IKKα; [1]) | Ki (Recombinant IKKβ; [2]) | Ki (Recombinant IKKα; [2]) | SMILES |
| --- | --- | --- | --- | --- |
| 19300 nM | 113 nM |  |  | CC(C)(C)C#Cc1cc(-c2ccnc(NC(=O)Nc3ccccc3)c2)cc2c(N)n[nH]c12 [Example 189, 1-(4-(3-Amino-7-(3,3-dimethylbut-1-yn-1-yl)-1H-indazol-5-yl)pyridine-2-yl)-3-phenylurea] |
| 68 nM | 36 nM |  |  | Cn1cc(Nc2cc(-c3cc(C#CC(C)(C)C)c4[nH]nc(N)c4c3)ccn2)cn1 [Example 303, 7-(3,3-dimethylbut-1-yn-1-yl)-5-(2-((1-methyl-1H-pyrazol-4-yl)amino)pyridin-4-yl)-1H-indazol-3-amine] |
|  |  | 484 nM | 15 nM | COc1ccccc1C#Cc1c(-c2ccc3[nH]nc(N)c3c2)ccnc1N [Example 81, 5-(2-Amino-3-((2-methoxyphenyl)ethynyl)pyridine-4-yl)-1H-indazol-3-amine] |
| 360 nM | 30 nM |  |  | CC(C)(C)C#Cc1cc(-c2ccnc3[nH]c(CCN4CCOCC4)cc23)cc2c(N)n[nH]c12 [Example 280, 7-(3,3-Dimethylbut-1-yn-1-yl)-5-(2-(2-morpholinoethyl)-1H-pyrrolo[2,3-b]pyridin-4-yl)-1H-indazol-3-amine] |
| 65 nM | 4 nM |  |  | Nc1n[nH]c2ccc(-c3ccnc4[nH]c(CCCNC5CCCCC5)cc34)cc12 [Example 270, 5-(2-(3-(Cyclohexylamino)propyl)-1H-pyrrolo[2,3-b]pyridin-4-yl)-1H-indazol-3-amine] |
| 1260 nM | 10 nM |  |  | CCOC(=O)c1cc2c(-c3ccc4[nH]nc(N)c4c3)ccnc2[nH]1 [Example 232, Ethyl 4-(3-amino-1H-indazol-5-yl)-1H-pyrrolo[2,3-b]pyridine-2-carboxylate] |
| 200 nM | 5 nM |  |  | Nc1n[nH]c2ccc(-c3ccnc4[nH]c(CC5CCN(Cc6ccccc6)CC5)cc34)cc12 [Example 273, 5-(2-((1-benzylpiperidin-4-yl)methyl)-1H-pyrrolo[2,3-b]pyridin-4-yl)-1H-indazol-3-amine] |
| 275 nM | 64 nM |  |  | COC(=O)Nc1cc(-c2cc(C#CC3(O)CCCC3)c3[nH]nc(N)c3c2)ccn1 [Example 304, Methyl (4-(3-amino-7-((1-hydroxycyclopentyl)ethynyl)-1H-indazol-5-yl)pyridin-2-yl)carbamate] |
| 4200 nM | 340 nM |  |  | Nc1n[nH]c2ccc(-c3ccnc(NC(=O)CC4CCCCC4)c3)cc12 [Example 335, N-(4-(3-Amino-1H-indazol-5-yl)pyridin-2-yl)-2-cyclohexylacetamide] |
|  |  | 1470 nM | 22 nM | Nc1n[nH]c2ccc(-c3ccnc(NCCCCO)c3)cc12 [Example 22, 4-(4-(3-Amino-1H-indazol-5-yl)pyridin-2-ylamino)butan-1-ol] |
| 594 nM | 19 nM |  |  | CC(C)(C)C#Cc1cc(-c2ccnc(Nc3ncco3)c2)cc2c(N)n[nH]c12 [Example 282, N-(4-(3-Amino-7-(3,3-dimethylbut-1-yn-1-yl)-1H-indazol-5-yl)pyridin-2-yl)oxazol-2-amine] |
|  |  | 350 nM | 15 nM | CC(=O)Nc1cc(-c2cc(C#CC(C)(C)C)c3[nH]nc(N)c3c2)ccn1 [Example 164, N-(4-(3-Amino-7-(3,3-dimethylbut-1-yn-1-yl)-1H-indazol-5-yl)pyridin-2-yl)acetamide] |
|  |  | 335 nM | 5 nM | Nc1n[nH]c2ccc(-c3ccnc4[nH]c(C(=O)O)cc34)cc12 [Example 10, 4-(3-Amino-1H-indazol-5-yl)-1H-pyrrolo[2,3-b]pyridine-2-carboxylic acid] |
|  |  | 363 nM | 34 nM | COC(=O)Nc1cc(-c2cc(C#CC(C)(C)OC)c3[nH]nc(N)c3c2)ccn1 [Example 182, Methyl (4-(3-amino-7-(3-methoxy-3-methylbut-1-yn-1-yl)-1H-indazol-5-yl)pyridin-2-yl)carbamate] |
| 2220 nM | 40 nM |  |  | CC(C)OCCCNCc1cc2c(-c3ccc4[nH]nc(N)c4c3)ccnc2[nH]1 [Example 257, 5-(2-(((3-Isopropoxypropyl)amino)methyl)-1H-pyrrolo[2,3-b]346yridine-4-yl)-1H-indazol-3-amine] |
|  |  | > 10000 nM | 495 nM | Nc1n[nH]c2ccc(-c3ccnc(NCCN4CCCCC4)c3)cc12 [Example 31, 5-(2-((2-(Piperidin-1-yl)ethyl)amino)pyridine-4-yl)-1H-indazol-3-amine] |
| 268 nM | 21 nM |  |  | Nc1n[nH]c2c(C#CCCCC(=O)O)cc(-c3ccnc4[nH]ccc34)cc12 [Example 214, 6-(3-Amino-5-(1H-pyrrolo[2,3-b]pyridin-4-yl)-1H-indazol-7-yl)hex-5-ynoic acid] |
|  |  | 784 nM | 15 nM | CC(C)(C)C#Cc1cc(-c2ccnc(NC3COC3)c2)cc2c(N)n[nH]c12 [Example 155, 7-(3,3-Dimethylbut-1-yn-1-yl)-5-(2-(oxetan-3-ylamino)pyridin-4-yl)-1H-indazol-3-amine] |
| 1080 nM | 449 nM |  |  | CC(C)(C)C#Cc1cc(-c2ccnc3[nH]c(C(C)(C)C)cc23)cc2c(N)n[nH]c12 [Example 296, 5-(2-(tert-Butyl)-1H-pyrrolo[2,3-b]pyridin-4-yl)-7-(3,3-dimethylbut-1-yn-1-yl)-1H-indazol-3-amine] |
| 1340 nM | 13 nM |  |  | CC(C)(C)C#Cc1cc(-c2ccnc3[nH]c(C(F)F)nc23)cc2c(N)n[nH]c12 [Example 300, 5-(2-(Difluoromethyl)-3H-imidazo[4,5-b]pyridin-7-yl)-7-(3,3-dimethylbut-1-yn-1-yl)-1H-indazol-3-amine] |
| 486 nM | 27 nM |  |  | CC(C)(C)C#Cc1cc(-c2ccnc(Nc3nnc[nH]3)c2)cc2c(N)n[nH]c12 [Example 319, 5-(2-((4H-1,2,4-Triazol-3-yl)amino)pyridin-4-yl)-7-(3,3-dimethylbut-1-yn-1-yl)-1H-indazol-3-amine] |
| 70 nM | 6 nM |  |  | Nc1n[nH]c2ccc(-c3ccnc4[nH]c(C(=O)NC5CCCC5)cc34)cc12 [Example 235, 4-(3-Amino-1H-indazol-5-yl)-N-cyclopentyl-1H-pyrrolo[2,3-b]pyridine-2-carboxamide] |
| 407 nM | 24 nM |  |  | COC(=O)Nc1cc(-c2cc(-c3ccc(CN4CCOCC4)cc3)c3[nH]nc(N)c3c2)ccn1 [Example 328, Methyl (4-(3-amino-7-(4-(morpholinomethyl)phenyl)-1H-indazol-5-yl)pyridin-2-yl)carbamate] |
|  |  | 224 nM | 21 nM | Nc1cc(-c2cc(-c3cccs3)c3[nH]nc(N)c3c2)ccn1 [Example 131, 5-(2-Aminopyridin-4-yl)-7-(thiophen-2-yl)-1H-indazol-3-amine] |
| > 10000 nM | > 10000 nM |  |  | COC(=O)Nc1cc(-c2cc(-c3ccc(CCN4CCOCC4)cc3)c3[nH]nc(N)c3c2)ccn1 [Example 330, Methyl (4-(3-amino-7-(4-(2-morpholinoethyl)phenyl)-1H-indazol-5-yl)pyridin-2-yl)carbamate] |
|  |  | 390 nM | 28 nM | CC(C)(O)CCC#Cc1c(-c2ccc3[nH]nc(N)c3c2)ccnc1N [Example 86, 6-(2-Amino-4-(3-amino-1H-indazol-5-yl)pyridine-3-yl)-2-methylhex-5-yn-2-ol] |
|  |  | 796 nM | 171 nM | Nc1n[nH]c2ccc(-c3ccnc(NCC4CC4)c3)cc12 [Example 15, 5-(2-((Cycipropylmethyl)amino)pyridine-4-yl)-1H-indazol-3-amine] |
| 429 nM | 38 nM |  |  | COC(=O)Nc1cc(-c2cc(-c3cccc(CN4CCOCC4)c3)c3[nH]nc(N)c3c2)ccn1 [Example 334, Methyl (4-(3-amino-7-(3-(morpholinomethyl)phenyl)-1H-indazol-5-yl)pyridin-2-yl)carbamate] |
